Test results published in patent US20230263826A1, “Compositions and Methods for Treatment and Prevention of Type 1 Diabetes” (The UAB Research Foundation, priority 2021, published 2023).

Tested on: female NOD mice
Assay: Plasma lipidomics in FKGK18- and PBS-T-treated NOD mice that developed T1D
Assay type: in vivo, mouse
Conditions: treatment initiated at 10 days or 4 weeks of age
Protocol: FIGS. 11A-11I show a comparison of select plasma lipids in diabetic NOD mice. NOD mice were treated with PBS-Tor with FKGK18, starting at 10 days or 4 weeks of age, and sacrificed at the onset of diabetes. Plasma was prepared from these mice and processed for lipidomics analyses. The data (mean±SEM) represent pmol of each lipid species in 100 or 50 µL plasma fo LTC4 (FIG. 11A), 15-HETE (FIG. 11B), 5-HETE (FIG. 11C), PGD2 (FIG. 11D), AA (FIG. 11E), So1P/So (FIG. 11F), EET/DHET (FIG. 11G), resolving D2 (FIG. 11H), and DHA (FIG. 11I). (Statistical analyses: Students′ t-test. N=4/group.).
Next, to determine if a proinflammatory landscape persists until T1D onset, Applicants performed lipidomic analyses with plasma from FKGK18- and PBS-T-treated NOD (starting at 10 days). […] Furthermore, the ratio of So1P/So was higher in diabetic PBS-T-NOD, in comparison with nondiabetic PBS-T- or FKGK18-treated NOD (FIG. 6F). […]
Analysis of sphingolipids, eicosanoids, and fatty acids by ultra performance liquid chromatography-electrospray ionization-tandem mass spectrometry. […] Sphingolipids, eicosanoids, and fatty acids were analyzed via mass spectrometry using an AB Sciex Triple Quad 5500 Mass Spectrometer. […] The MΦ (2.75 × 10^6) were administered i.p. to 8-week-old female NOD, and diabetes incidence was recorded through weekly blood glucose monitoring.

**Q.** O=C(CCCCc1ccc2ccccc2c1)C(F)(F)F [FKGK18] was tested. Which “plasma PGD2 relative to PBS-T (d) groups” value (mice that developed T1D) did it give?
**A.** The value was “decrease”.

**Q.** What about the “plasma lipids vs PBS-T in mice that developed T1D” value (sacrificed at onset of diabetes, all lipids except PGD2) of the same compound?
**A.** The value was “no differences”.
